# Publication PMC4014704, “β-Boomerang Antimicrobial and Antiendotoxic Peptides: Lipidation and Disulfide Bond Effects on Activity and Structure” (Pharmaceuticals, 2014)
# Peptide text beside a SMILES is read from it.
# How the values were obtained:
# [1] = Reverse phase HPLC retention time (hydrophobicity); assay type: physicochemical; set-up: unit not given beside the values; details: C18 column (300 Å pore size, 5 μm particle size), linear gradient acetonitrile/water, higher Rt taken as more hydrophobic
# Description: Materials: LPS of E. coli 0111:B4, FITC-LPS of E. coli 055:B5, acrylamide, NPN (1-N-phenylnaphthylamine) were purchased from Sigma (Saint Louis, MO, USA). All bacterial strains were obtained from the American Type Culture Collection (Manassas, VA, USA). Designed peptides were synthesized commercially by GL Biochem (Shanghai, China) and further purified by a reverse phase HPLC (Waters), using a C18 column (300 Å pore size, 5 μm particle size). The dimeric variants of β-boomerang lipopeptides were treated with 20% DMSO for 18 hours and the oxidized peptides were further purified by HPLC. A linear gradient of acetonitrile/water mixture was used for the purification and fractions eluting with higher purity were collected and freeze-dried.
# (§1) In addition, incorporation of disulfide bridges in AMPs may stabilize conformations and enhance cationicity and hydrophobicity required for enhanced activity. […] Residue Ile10 was chosen for Cys replacement since this residue is located at the exposed face of the β-strand of the YI12WF structure (Figure 1).
# LPS micelles [2] = assay: Isothermal titration calorimetry; assay type: binding, E. coli 0111:B4; details: ITC
# Description: Isothermal titration calorimetry: Binding of designed peptides with LPS micelles was determined using isothermal titration calorimetry in VP-ITC micro calorimeter (Microcal Inc, Northampton, MA, USA). Peptides and LPS samples were dissolved in 10 mM phosphate buffer, pH 7.0 and filtered. LPS at a concentration of 10 μM was loaded into the sample cell and the reference cell was filled with the same buffer. The syringe was filled with 1mM peptide solution. Typically 30 injections of 3.5 μL of the peptides were made into the sample cell at 25 °C. Sample cell was stirred continuously at 300 rpm. Raw data were obtained and analyzed using single site binding model in Microcal Origin 5.0 software. Association constant (Ka) and enthalpy change (ΔH) were directly determined from ITC profiles. Dissociation constant was calculated from Kd = 1/Ka. ΔG and TΔS were estimated from the fundamental equations of thermodynamics, ΔG = −RTlnKa and TΔS = (ΔH − ΔG), respectively.
# red blood cells = details: mouse RBC ~4% (v/v) in PBS pH 7.0, 1 h, OD540, 1% Triton-X = positive control
# Description: Hemolytic assay: Blood was collected from healthy mice in a tube containing EDTA. Cells with EDTA were centrifuged at 800 g for 10 min, to remove the buffy plasma coat layer, and washed three times in PBS (35 mM phosphate buffer, 150 mM NaCl, pH 7.0). 50 μL of RBC solution was added to equal volume of two-fold dilution of the peptides in 96-well micro titer plates and incubated for one hour. The final erythrocyte concentration estimated to be ~4% (v/v). After one hour, the mixture was centrifuged and the release of hemoglobin in the supernatant was determined spectrophotometrically at OD540. Buffer and 1% Triton-X in the place of peptides used as negative control and positive control, respectively. The percentage of hemolysis was calculated using the following method: Percentage of hemolysis = (OD peptide − OD buffer)/(OD Triton-X-OD buffer) × 100
# E. coli cells = assay: Zeta potential measurements; assay type: cell-based; details: 4 μM peptide; cells without peptide about −20.0 mV; OD600 0.2
# Description: Zeta potential measurements: The zeta potential measurements were carried out on a Zetasizer Nano ZS (Malvern Instruments, Worcestershire, UK) equipped with a 633 nm He lasers. Mid-log phase grown bacterial cells were diluted to an OD600 of 0.2 and a basal measurement in the absence of peptides was acquired in disposable zeta cells with gold electrodes. Increasing concentrations of the designed peptides were then added to the cells and the measurements were made. A total of five measurements of 100 runs each were carried out for all dilutions.
# LPS (endotoxin) = assay: LPS neutralization assay (chromogenic LAL kit); assay type: biochemical
# Description: LPS neutralization assay: LAL chromogenic kit (QCL 100 Cambrex, Walkersville, MD, USA) was used to determine endotoxin neutralization of the designed peptides following protocol of the vendor. LPS in Gram negative bacteria activates a proenzyme in limulus amoebocyte lysate (LAL). This activated enzyme in turn catalytically release a colored product pNA from the colorless substrate Ac-Ile-Glu-Ala-Arg-pNA which is detected spectrophotometrically at OD410. All peptides were dissolved in the pyrogen-free water supplied with the kit and pH was adjusted to 7.0 with 1N HCl or 1N NaOH (which is prepared in pyrogen-free water). The increasing concentrations of the peptides were incubated with three different concentrations of endotoxins, i.e., at 0.4, 0.8 and 1.0 endotoxin units (EU) in a total volume of 50 μL for 30 minutes at 37 °C. About 50 μL of LAL reagent was added to peptide-LPS complex and further incubated for 10 minutes followed by addition of 100 μL substrate. After incubation of six minutes for the reaction, the release of colored product was recorded at OD410. Water in the place of peptides served as negative control (blank) that is considered as 0% inhibition and percentage of LPS neutralization was calculated by: % of LPS neutralization = [(OD blank − OD peptide)/OD blank] × 100
# LPS micelles [3] = assay: Dynamic light scattering of LPS micelles; set-up: species or system E. coli 0111:B4; details: DLS, 0.5 μM LPS, LPS:peptide 1:4; LPS alone 814 nm
# Description: Dynamic light scattering measurements: LPS forms micelles of large sizes, which with the addition of increasing concentration of peptides, dissociates to smaller sizes. DLS measurements were made for 0.5 μM LPS and then with LPS: Peptide ratios of 1:2 and 1:4. The scattering was measured with Dynamic Light Scattering software provided with the instrument (Brookhaven Instruments Corp., Holtsville, NY, USA) and the scattering data was analyzed with CONTIN method.
# S.enterica (ATCC 14028) = assay: Antibacterial assay (MIC); assay type: cell-based; details: 10 mM phosphate buffer pH 6.8, 3 h 37 °C, streaked on Mueller-Hinton agar
# Description: (§2) Antibacterial assay: The minimum inhibitory concentration (MIC) of the designed peptides was determined against four Gram-negative strains (E. coli, P. aeruginosa ATCC 27853, K. pneumoniae ATCC 13883, S. enterica ATCC 14028) and four Gram-positive strains (B. subtilis, S. aureus ATCC 25923, S. pyogenes ATCC 19615 and E. faecalis ATCC 29212). In brief, mid logarithmic phase of overnight grown bacterial cultures were obtained in LB broth and adjusted to OD600 0.2 in 10 mM phosphate buffer, pH 6.8. About 50 μL of these cells were added to equal volume of designed peptides at two-fold dilutions in 96-well sterile polypropylene plates followed by incubation for 3hrs at 37 °C. Aliquots of the above titrated wells were streaked onto Mueller-Hinton agar plates and the concentration at which no visible bacterial growth was observed considered as the MIC value of the peptide.
# S.pyogenes (ATCC 19615) = assay: Antibacterial assay (MIC); assay type: cell-based; details: 10 mM phosphate buffer pH 6.8, 3 h 37 °C, streaked on Mueller-Hinton agar
# Description: as §2
# [4] = tested on: K. pneumoniae (ATCC 13883); assay: Antibacterial assay (MIC); assay type: cell-based; details: 10 mM phosphate buffer pH 6.8, 3 h 37 °C, streaked on Mueller-Hinton agar
# Description: as §2
# S.aureus (ATCC 25923) = assay: Antibacterial assay (MIC); assay type: cell-based; details: 10 mM phosphate buffer pH 6.8, 3 h 37 °C, streaked on Mueller-Hinton agar
# Description: as §2
# E.faecalis (ATCC 29212) = assay: Antibacterial assay (MIC); assay type: cell-based; details: 10 mM phosphate buffer pH 6.8, 3 h 37 °C, streaked on Mueller-Hinton agar
# Description: as §2
# E.coli (Lab strain) = assay: Antibacterial assay (MIC); assay type: cell-based; details: 10 mM phosphate buffer pH 6.8, 3 h 37 °C, streaked on Mueller-Hinton agar, no visible growth
# Description: as §2
# [5] = tested on: P.aeruginosa (ATCC 27853); assay: Antibacterial assay (MIC); assay type: cell-based; details: 10 mM phosphate buffer pH 6.8, 3 h 37 °C, streaked on Mueller-Hinton agar
# Description: as §2
# B.subtilis (Lab strain) = assay: Antibacterial assay (MIC); assay type: cell-based; details: 10 mM phosphate buffer pH 6.8, 3 h 37 °C, streaked on Mueller-Hinton agar
# Description: as §2
# [6] = aqueous solution for NMR
# Description: as §1
# The solution conformations of YI13C, C4YI13C peptides were examined in free solution using two-dimensional ^1H-^1H NOESY and TOCSY experiments.
# [7] = tested on: outer membrane of E. coli cells; assay: Outer membrane permeability assay (NPN dye); assay type: cell-based; details: E. coli OD600 0.5, 10 μM NPN
# Description: Outer membrane permeability assay: Outer membrane of Gram bacteria acts as permeability barrier for hydrophobic antibacterial compounds. […] E. coli cells were grown to mid logarithmic phase and diluted to an OD600nm of 0.5 in 10 mM sodium phosphate buffer, pH 7.0. The excitation was set at 350 nm and emission at 390–450 nm. NPN was added to the diluted cells at the concentration of 10 μM and a basal fluorescence was recorded followed by the addition of increasing concentration of peptides.
# [8] = 0.4 EU endotoxin, 1.0 μM peptide, 30 min 37 °C, OD410
SMILES,Retention time (Rt) [1],"Ka (LPS micelles [2]; 1 mM peptide into 10 μM LPS, 10 mM phosphate buffer pH 7.0, 25 °C, single site binding model) [µM⁻¹]","Kd (LPS micelles [2]; LPS micelles, pH 7.0, 25 °C, Kd = 1/Ka) [nM]",% of hemolysis at 50 μM peptide concentration (red blood cells) [%],Zeta potential of E. coli cells after peptide addition (E. coli cells),LPS neutralization (LPS (endotoxin); [8]),"LPS neutralization (LPS (endotoxin); 1.0 EU endotoxin, 1.0 μM peptide) [%]",Diameter of LPS aggregates (LPS micelles [3]) [nm],Minimum inhibitory concentration (MIC) (S.enterica (ATCC 14028)) [µM],Minimum inhibitory concentration (MIC) (S.pyogenes (ATCC 19615)) [µM],Minimum inhibitory concentration (MIC) [4] [µM],Minimum inhibitory concentration (MIC) (S.aureus (ATCC 25923)) [µM],Minimum inhibitory concentration (MIC) (E.faecalis (ATCC 29212)) [µM],Minimum inhibitory concentration (MIC) (E.coli (Lab strain)) [µM],Minimum inhibitory concentration (MIC) [5] [µM],Minimum inhibitory concentration (MIC) (B.subtilis (Lab strain)) [µM],Solubility for NMR studies (in words) [6],NPN fluorescence intensity with increasing peptide (in words) [7],"LPS neutralization (LPS (endotoxin); at increased peptide concentration, different LPS concentrations (0.4, 0.8, 1.0 EU), dose dependent) [%]"
"CCCC(=O)N[C@@H](Cc1ccc(O)cc1)C(=O)N[C@H](C(=O)N[C@@H](CC(C)C)C(=O)N[C@@H](Cc1c[nH]c2ccccc12)C(=O)N[C@@H](CCCCN)C(=O)N[C@@H](CCCNC(=N)N)C(=O)N[C@@H](CCCCN)C(=O)N[C@@H](CCCNC(=N)N)C(=O)N[C@@H](CCCCN)C(=O)N[C@@H](Cc1ccccc1)C(=O)N[C@@H](CSSC[C@H](NC(=O)[C@H](Cc1ccccc1)NC(=O)[C@H](CCCCN)NC(=O)[C@H](CCCNC(=N)N)NC(=O)[C@H](CCCCN)NC(=O)[C@H](CCCNC(=N)N)NC(=O)[C@H](CCCCN)NC(=O)[C@H](Cc1c[nH]c2ccccc12)NC(=O)[C@H](CC(C)C)NC(=O)[C@@H](NC(=O)[C@H](Cc1ccc(O)cc1)NC(=O)CCC)C(C)C)C(=O)N[C@@H](Cc1ccccc1)C(=O)N[C@H](C(N)=O)[C@@H](C)CC)C(=O)N[C@@H](Cc1ccccc1)C(=O)N[C@H](C(N)=O)[C@@H](C)CC)C(C)C [C4YI13C] (HELM PEPTIDE1{[CCCC(=O)[*:2]].Y.V.L.W.K.R.K.R.K.F.C.F.I.[am]}|PEPTIDE2{[CCCC(=O)[*:2]].Y.V.L.W.K.R.K.R.K.F.C.F.I.[am]}$PEPTIDE1,PEPTIDE2,12:R3-12:R3$$$V2.0)",31.62,2.2,450,14.1,about +19.1 mV,~ 40%,50,331,50,50,8,50,50,10,15,15,,,
"CCCCCCCC(=O)N[C@@H](Cc1ccc(O)cc1)C(=O)N[C@H](C(=O)N[C@@H](CC(C)C)C(=O)N[C@@H](Cc1c[nH]c2ccccc12)C(=O)N[C@@H](CCCCN)C(=O)N[C@@H](CCCNC(=N)N)C(=O)N[C@@H](CCCCN)C(=O)N[C@@H](CCCNC(=N)N)C(=O)N[C@@H](CCCCN)C(=O)N[C@@H](Cc1ccccc1)C(=O)N[C@@H](CSSC[C@H](NC(=O)[C@H](Cc1ccccc1)NC(=O)[C@H](CCCCN)NC(=O)[C@H](CCCNC(=N)N)NC(=O)[C@H](CCCCN)NC(=O)[C@H](CCCNC(=N)N)NC(=O)[C@H](CCCCN)NC(=O)[C@H](Cc1c[nH]c2ccccc12)NC(=O)[C@H](CC(C)C)NC(=O)[C@@H](NC(=O)[C@H](Cc1ccc(O)cc1)NC(=O)CCCCCCC)C(C)C)C(=O)N[C@@H](Cc1ccccc1)C(=O)N[C@H](C(N)=O)[C@@H](C)CC)C(=O)N[C@@H](Cc1ccccc1)C(=O)N[C@H](C(N)=O)[C@@H](C)CC)C(C)C [C8YI13C] (HELM PEPTIDE1{[CCCCCCCC(=O)[*:2]].Y.V.L.W.K.R.K.R.K.F.C.F.I.[am]}|PEPTIDE2{[CCCCCCCC(=O)[*:2]].Y.V.L.W.K.R.K.R.K.F.C.F.I.[am]}$PEPTIDE1,PEPTIDE2,12:R3-12:R3$$$V2.0)",37.40,,,21.5,~+24.0 mV,around 60%,,385,50,50,12,5,4,3,5,5,limited solubility,continues to increase,80
